{
  "source": "patent US6071707A",
  "about": "“Phosphotyrosine mimics and method for identifying and using same” (Boehringer Ingelheim Pharmaceuticals, Inc., priority 1997, dated 2000)",
  "tested_on": "anti-phosphotyrosine antibody (MAb PY-20)",
  "assay": "Method for identifying phosphotyrosine mimics: competitive binding to anti-phosphotyrosine antibody (ELISA)",
  "parameters": "species or system mouse",
  "details": "ELISA criterion: 50% or greater inhibition of anti-phosphotyrosine binding 15 μg/ml; biotinylated peptide ECQ(pY)QPQP",
  "excerpt": "The present invention also provides a convenient and sensitive method for identifying phosphotyrosine mimics by utilizing anti-phosphotyrosine antibodies to rapidly screen large numbers of non-phosphorylated test compounds. Specifically, this method comprises the steps of:\n(a) contacting a non-phosphorylated test compound and a phosphotyrosine-containing substance with an anti-phosphotyrosine antibody; and\n(b) detecting the ability of the non-phosphorylated test compound to inhibit the binding of the anti-phosphotyrosine antibody to the phosphotyrosine-containing substance.\nA 96 well microtiter plate (Pierce #15126, Reacti-Bind Streptvidin coated polystyrene) was coated with 100 μl of biotinylated peptide ECQ(pY)QPQP (MW=1367.5) at a concentration of 15 nM in Tris Buffered Saline (TBST) (10 mM Tris.HCl, pH 7.5, 100 mM NaCl, 0.1% Tween 20) for 45 minutes at room temperature. The microtiter plate was washed 4 times with TBST. MAb PY-20 (Zymed #03-7799) was pre incubated for 45 minutes at a 2× concentration of 0.078 μg/ml ([…]) with a 2× concentration of non-phosphorylated test compounds in TBST. 100 μl of test compound/antibody solution was added in duplicate to each of the wells and incubated at room temperature. The microtiter plate was washed 4 times with TBST. […] Optical density was measured at 405 nm. […]",
  "data": [
    {"smiles": "O=C(O)c1ccccc1", "note": "[phenyl carboxylic acid]", "values": [
      {"measurement": "identification as phosphotyrosine mimic (inhibition of anti-phosphotyrosine antibody binding to a phosphotyrosine-containing substance)", "result": "identified as a phosphotyrosine mimic"}
    ]}
  ]
}
